The source of these data is patent US11401294B2, “Co-crystal forms of a novobiocin analog and proline” (Reata Pharmaceuticals, Inc., priority 2018, dated 2022).

SMILES strings stand for the structures. Read-outs that look alike come from different tables or passages of the source. Marks after values point to notes of the source that are not given here.

The nature of data set [1]: in vivo. The settings on record: male, C57BL/6, mouse, po, 1000 mg/kg. As for the experimental part: Blood samples for plasma isolation were collected at 0.25, 0.5, 1, 2, 4, 8, and 24 hours post-dose, using a separate group (n=5/group/time point) of mice for each time point, as summarized in Table 14 below. Plasma samples were analyzed for concentrations of 4a by LC/MS/MS methodology as described below.
4a was extracted from K3EDTA-fortified plasma samples using a protein precipitation method. In a well of a polypropylene microplate (96-well), 20 μL of a 2.5-ng/mL D3-4a (internal standard, IS) solution prepared in acetonitrile/H2O (1:1) was added, followed by addition of 20 μL of plasma sample. The plate was sealed with sealing tape (Phenomenex, AH0-7362) and gently mixed with a vortex-mixer for 1 minute. The solution was pipetted into a well of a polypropylene plate (96-well, 2 mL, Phenomenex, AH0-7194) that contained 500 μL of methanol. The plate was sealed and vortex-mixed for 5 minutes followed by centrifugation at 3000×g for 3 minutes at room temperature. A 300-μL aliquot of the supernatant was transferred to a new well that contained 300 μL of deionized water. After gentle mixing, the plate was sealed and placed in an LC autosampler maintained at 12° C., and a 10-μL aliquot was injected into an LC/MS/MS system for quantitative analysis of 4a.
Liquid chromatographic separation of 4a was achieved by a reversed-phase analytical column with mobile phase solution containing H2O, acetonitrile, and formic acid. The chromatographed analyte was detected by a Waters Xevo TQ-S triple quadrupole mass spectrometer operating in multiple-reaction-monitoring (MRM) mode. Chromatographed peak areas for quality control samples, calibration standards, and study samples were integrated using MassLynx software V4.1 (Waters Corp.).
Pharmacokinetic parameter estimates were obtained from non-compartmental analysis of the mean 4a plasma concentration-time data for each dose group using WinNonlin™ software version 6.3 (Pharsight Corp., Cary, N.C.). […] The time of the last measurable concentration was defined as the time after which 4a concentrations were below the limit of quantitation (BLQ) in the majority of animals for each dose group.

Data set [2] can be described thus: Systemic exposure to 4a after single oral gavage (suspension) or loose-filled capsule in monkeys (plasma LC/MS/MS, PK). In kind it is in vivo. The settings on record: male, cynomolgus, cynomolgus monkey, oral gavage suspension 30 mg/kg, 0.25 hr, read-out: 4a Plasma Concentration, mean (±SD).
Experiment in data set [3]: as above
In kind it is in vivo, male cynomolgus monkeys. The settings on record: for AUC(0-t): read-out: AUC(0-t), mean (±SD); for Cmax: read-out: Cmax, mean (±SD); for Tmax: read-out: Tmax (median). Here is the method: Dosing of Material A accounted for the presence of proline on a weight basis. Blood samples for plasma isolation were collected at […], 0.5, 1, 2, 4, 8, 12, and 24 hours post-dose from each monkey.

For data set [4], the system named is neurons. As to conditions: Kusuma (2012); cited from earlier work.
For data set [5], the system named is Hsp90. As to conditions: Kusuma (2012) and Ma (2015); cited from earlier work.
The mark [6] stands for this setting: male, cynomolgus, cynomolgus monkey, plasma, oral gavage suspension 30 mg/kg, read-out: 4a Plasma Concentration, mean (±SD).
The mark [7] stands for this setting: male, cynomolgus, cynomolgus monkey, plasma, oral gavage suspension 30 mg/kg.
Setting [8] is: male, cynomolgus, cynomolgus monkey, plasma, oral, capsule 50 mg, read-out: 4a Plasma Concentration, mean (±SD).
Setting [9] is: male, cynomolgus, cynomolgus monkey, plasma, oral, capsule 50 mg, BLQ values included as 1/2 LLOQ (0.200 ng/mL), read-out: 4a Plasma Concentration, mean (±SD).
Setting [10] is: male, cynomolgus, cynomolgus monkey, plasma, po, 50 mg capsule.

Regarding `CO[C@@H]1[C@@H](O)[C@@H](O)[C@H](Oc2ccc(CCNC(C)=O)c(-c3cccc(F)c3)c2)OC1(C)C` [amorphous 4a, N-(2-(5-(((2R,3R,4S,5R)-3,4-dihydroxy-5-methoxy-6,6-dimethyltetra-hydro-2H-pyran-2-yl)oxy)-3′-fluoro-[1,1′-biphenyl]-2-yl)ethyl)-acetamide], the AUC(0-t) (commonly exposure summed from dosing to a finite time, without extrapolation to infinity) in data set [1] stood at 2880 ng·h/mL; in data set [3] (setting [7]) it was 307 ± 96 ng·h/mL; in data set [3] (setting [10]), 81.6 ± 105 ng·h/mL. The Cmax (commonly the maximum level reached in the sampled fluid or tissue) stood at 6760 ng/mL in data set [1], 160 ± 78 ng/mL in data set [3] (setting [7]) and 19.7 ± 9.4 ng/mL in data set [3] (setting [10]). Moreover, the Tmax – broadly, the time at which the peak concentration occurs – in data set [1] was determined as 15 min; in data set [3] (setting [7]), 30 min; in data set [3] (setting [10]) it was 15 min. Besides, the figures for the concentration at 0.5 h in data set [1], in data set [3] (setting [6]) and in data set [3] (setting [8]) were 3060 ± 1600 ng/mL, 129 ± 92 ng/mL and 12.3 ± 5.5 ng/mL, respectively. Also, the figures for the concentration at 1 h in data set [1], in data set [3] (setting [6]) and in data set [3] (setting [8]) were 359 ± 140 ng/mL, 128 ± 56 ng/mL and 5.97 ± 0.95 ng/mL, respectively. Further, the concentration at 2 h stood at 80.7 ± 116 ng/mL in data set [1], 80.2 ± 26.4 ng/mL in data set [3] (setting [6]) and 1.9 ± 1.89 ng/mL in data set [3] (setting [9]). In addition, the concentration at 4 h in data set [1] turned out to be 2.28 ± 0.92 ng/mL; in data set [3] (setting [6]), 14.1 ± 5.5 ng/mL; in data set [3] (setting [9]) it was 0.2 ng/mL. The concentration at 8 h in data set [1] is 4.01 ± 4.34 ng/mL; in data set [3] (setting [6]) it was 1.2 ± 0.45 ng/mL; in data set [3] (setting [9]) it was 0.951 ± 1.3 ng/mL. Further, the concentration at […] in data set [2] amounted to 103 ± 71 ng/mL; in data set [3] (male, cynomolgus, cynomolgus monkey, plasma, oral, capsule 50 mg, 0.25 hr, read-out: 4a Plasma Concentration, mean (±SD)) it was 15.9 ± 12.9 ng/mL. Besides, the “4a Plasma Concentration, mean (±SD)” value in data set [3] (capsule 50 mg, 24 hr, BLQ values included as 1/2 LLOQ (0.200 ng/mL)) is on record as 6.11 ± 9.23^c ng/mL; in data set [3] (oral gavage suspension 30 mg/kg, 12 hr), “BLQ^d”; in data set [3] (oral gavage suspension 30 mg/kg, 24 hr) it was “BLQ^d”. In data set [3] (male, cynomolgus, cynomolgus monkey, plasma, oral, capsule 50 mg, 12 hr, BLQ values included as 1/2 LLOQ (0.200 ng/mL), read-out: 4a Plasma Concentration, mean (±SD)), the concentration at 12 h worked out at 3.53 ± 5.78 ng/mL. The concentration at 24 h in data set [3] (male, cynomolgus, cynomolgus monkey, plasma, oral, loose-filled capsule 50 mg, 24 hours post-dose (secondary peak), read-out: mean (±SD) 4a plasma concentration) came out at 6.11 ± 9.23 ng/mL.
Turning to `CO[C@@H]1[C@@H](O)[C@@H](O)C(Oc2ccc(CCNC(C)=O)c(-c3cccc(F)c3)c2)OC1(C)C` (single isomer, unassigned) [Form 4], the neuronal protective activity entry in data set [4] was “high neuronal protective activity”. Besides, the “potency in Hsp70-independent inhibition of Hsp90” value in data set [5] is “excellent potency”.
